What was measured:
β-secretase (BACE) [1] = target: T1, β-secretase (BACE) (Homo sapiens, UniProt P56817); test: in vitro BACE FS1 % Inhibition Assay (Example 13); assay type: biochemical; conditions: FS1 substrate, pH 5; for inhibition at 0.3 µM: read-out: % Inhibition (Example 13) @ 0.3 μM, 0.3 μM compound; for inhibition at 1 µM: read-out: % Inhibition (Example 13) @ 1 μM, 1 μM compound; for inhibition at 3 µM: read-out: % Inhibition (Example 13) @ 3 μM, 3 μM compound
T1 construct: purchased Panvera
Procedure: (§1) The following assay buffers were prepared and used in this assay: (1) enzyme assay buffer (0.05 M sodium acetate, pH5, 0.1% PEG8000 (w/v)), (2) substrate assay buffer (0.05 M sodium acetate, pH5), and (3) compound vehicle (30% DMSO in 50 mM HEPES, pH 7.4).
(§2) The FS1-substrate stock solution was prepared in DMSO as a 10 mg/mL solution. The FS1-substrate working solution was prepared by diluting the 10 mg/mL stock solution with substrate assay buffer to a final concentration of 300 μg/mL. The α-secretase (BACE) working solution was prepared by diluting a 0.83 mg/mL BACE stock solution with enzyme assay buffer to a final concentration of 4 μg/mL.
Test compounds were dissolved in DMSO to 10 mM.
(§3) The screening procedure for this assay was as follows: 15 μL of BACE working solution was pipetted into each well of a 96-well plate. To each well was then pipetted 2 μL of test compound at the selected concentration. Test compound and BACE were then mixed with a pipettor and incubated for 20 min at room temperature. To each well was then added 10 µL of the FS1 substrate working solution. The plates were then incubated for 1 hour at room temperature.
The procedure for the blank (negative control) was as follows. 15 μL of assay buffer was pipetted into each well to be used as a blank control. To each well was then added 2 μL of vehicle and 10 μL of FS1-substrate working solution. The plates were then incubated for 1 hour at room temperature.
(§4) The procedure for the positive control was as follows: 15 μL of BACE working solution was pipetted into each well to be used as a positive control. To each well was then pipetted 2 μL of vehicle. Vehicle and BACE were then mixed with a pipettor and incubated for 20 min at room temperature. To each well was then added 10 μL of the FS1 substrate working solution. The plates were then incubated for 1 hour at room temperature.
For test compounds, % inhibition was determined at each concentration as follows: […]

β-secretase (BACE) [2] = target: T1, β-secretase (BACE); test: in vitro BACE Assay, Ki (Example 14); assay type: biochemical
Procedure: as §1
as §2, with “β-secretase” for “α-secretase”
Test compounds were dissolved in DMSO at 10 mM.
as §3, with “The” for “The screening”, “μL” for “µL”, “solution.” for “solution. The plates were then incubated for 1 hour at room temperature.”
as §4, with “solution.” for “solution. The plates were then incubated for 1 hour at room temperature.”
For test compounds, Ki inhibition was determined as follows: For each compound concentration and positive control, rate of cleavage of substrate (Vi, where i=compound concentration in μM) was determined as Δ Fluorescence/Δ time (min). Cleavage rates (Vi) were plotted as a function of inhibitor concentration in μM [I]. The Ki was then determined by fitting the following equation to the graph of [I] vs. Vi Y=aVmax/(50+24*(1+X/Ki)),

T1 sequence (P56817 46-501): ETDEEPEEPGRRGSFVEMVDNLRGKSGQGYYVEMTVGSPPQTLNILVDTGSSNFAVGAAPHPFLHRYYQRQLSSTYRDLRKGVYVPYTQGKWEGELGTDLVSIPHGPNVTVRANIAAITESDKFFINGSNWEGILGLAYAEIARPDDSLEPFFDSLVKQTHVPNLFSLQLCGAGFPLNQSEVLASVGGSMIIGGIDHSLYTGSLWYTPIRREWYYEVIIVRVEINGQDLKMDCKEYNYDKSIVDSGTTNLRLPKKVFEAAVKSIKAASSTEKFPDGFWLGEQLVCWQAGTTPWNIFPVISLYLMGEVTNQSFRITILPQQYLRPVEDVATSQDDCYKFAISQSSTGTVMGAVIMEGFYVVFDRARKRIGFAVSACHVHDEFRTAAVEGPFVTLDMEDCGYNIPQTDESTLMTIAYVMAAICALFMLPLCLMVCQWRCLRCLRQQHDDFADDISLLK

inhibition at 0.3 µM (β-secretase (BACE) [1]) | inhibition at 1 µM (β-secretase (BACE) [1]) | inhibition at 3 µM (β-secretase (BACE) [1]) | Ki (β-secretase (BACE) [2]) | SMILES
35% | 55% | 93% | 400 nM | NC1=Nc2ccc3cc2CN1[C@@H](C1CCCCC1)CCCN(C1CCCCC1)CCCc1cccc(c1)O3 [Compound 19]
25% | 48% | 83% | 750 nM | CCOC(=O)C1CCC(N2CCc3cccc(c3)Oc3ccc4c(c3)CN(C(N)=N4)C(C(C)C)CCC2=O)CC1 (centres unmarked) [Compound 22]

Reference: patent US7932261B2, “Macrocycle derivatives useful as inhibitors of β-secretase (BACE)” (Janssen Pharmaceutica NV, priority 2006, dated 2011)
